The assay concerns the target T1, GAL4-DBD/RORγ-LBD (Homo sapiens, UniProt P51449).
T1 construct: expressed in transfected cells; host or cells: HEK293T
Nature of the assay: RORγt transactivation reporter assay (GAL4-DBD/RORγ-LBD, luciferase read out). It is filed as cell-based. As to conditions: HEK293T cells, GAL4-UAS luciferase reporter, overnight (18-24 hours) incubation. The method, then: RORγt Transactivation Reporter Assay Protocol: The inhibition of RORγt activity in cells was evaluated using a GAL4-UAS reporter system in HEK293T cells employing a luciferase read out. RORγt ligand binding domain (LBD) was cloned into the pFN26A (BIND) vector (Promega #[…]) containing yeast GAL4-DBD to form a RORγt LBD-GAL4 DBD fusion construct. This vector also contained a Renilla Luciferase reporter expressed under a SV40 promoter which was used as a control for transfection efficiency. A transcriptional reporter expression construct pGL4.35 (Promega #[…]) was used to monitor RORγt LBD-GAL4 activity. This construct contained nine repeats of GAL4 binding site/upstream activating sequence (UAS) controlling expression of a firefly luciferase reporter Luc2P. When transfected together in cells, the RORγ-LBD-DBD fusion protein drives expression of the luciferase reporter. For the assay, HEK293T cells were plated in a flat bottom 96 well plate at a density of 25,000 cells/well/100 ul of DMEM high glucose medium (Sigma D5648) containing 10% FBS and antibiotic. Cells were incubated overnight at 37 C/5% CO2. The next day, medium from the wells was removed and replaced with 30 ul of OptiMEM® (Invitrogen #31985070). 100 ng each of pBIND RORγ LBD-DBD and pGL4.35 reporter plasmids was transfected in HEK293T cells using Lipofectamine 2000 (Invitrogen #11668-019) where 10 ul of transfection complex was added to the each well. Control transfections were performed with an empty pF[…] vector and pGL4.35 vector. The transfected cells were incubated for 5 hours at 37 C/5% CO2. After incubation, 40 ul of DMEM high glucose medium without FBS, with antibiotic was added to each well. A 10 mM stock solution of test compound prepared in 100% DMSO was first diluted in DMSO and then in DMEM medium without FBS to give the required final compound concentration. Concentration of DMSO in the test compound solution was 0.4%. 20 ul of diluted compound solution was added to each well. Cells were incubated overnight (18-24 hours) at 37 C/5% CO2. The next day, luciferase assay was performed using the Dual Glo® Luciferase Assay System (Promega #E2940). Briefly, medium was removed from the wells and replaced with 40 ul 1× Passive Lysis Buffer (Promega #E1941). Plate was incubated at room temperature on a plate shaker at 1000 rpm for 40 min. After incubation, plate was centrifuged at 1000 rpm for 2 min. 20 ul of the lysate was transferred from each well to that of solid white half area 96 well plate (Costar #3693). Dual Glo® Reagent was thawed to room temperature and 20 ul was added to each well containing lysate. Plate was centrifuged at 1000 rpm/2 min and incubated at room temperature on a plate shaker at 600 rpm/25 min. Firefly luciferase signal was measured on a Tecan Safire2. After measurement, 20 ul of Dual Glo® Stop Glo® Reagent was added to each well. Plate was centrifuged at 1000 rpm/2 min and incubated at room temperature on a plate shaker at 600 rpm/25 min. Renilla luciferase signal was measured on Tecan Safire 2. IC50 values for test compounds were calculated from the normalized luciferase signal data using GraphPad Prism software.

Some results are limits rather than exact numbers.

T1 sequence (P51449 269-508 limits assumed): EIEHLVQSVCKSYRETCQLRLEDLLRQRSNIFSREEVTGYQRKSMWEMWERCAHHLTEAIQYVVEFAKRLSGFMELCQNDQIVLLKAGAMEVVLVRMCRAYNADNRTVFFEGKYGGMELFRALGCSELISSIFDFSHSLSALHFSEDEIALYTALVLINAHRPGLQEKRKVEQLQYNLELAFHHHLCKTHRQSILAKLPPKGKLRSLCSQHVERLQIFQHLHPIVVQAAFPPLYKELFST
T1 sequence (P04386 1-147 partner limits assumed): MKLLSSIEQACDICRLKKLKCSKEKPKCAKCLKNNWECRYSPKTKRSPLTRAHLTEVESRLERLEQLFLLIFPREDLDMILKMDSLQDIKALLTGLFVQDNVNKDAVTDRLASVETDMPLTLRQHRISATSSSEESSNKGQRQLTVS

The IC50 is the concentration that gives 50% inhibition. A high value points to a need for much substance. In turn, “4-[3-(2,6-dibromobenzoyl)indolizin-1-yl]benzoic acid [Example A-53]” yielded a half-maximal inhibitory concentration (IC50) of less than 5000 nM.

Compound “4-[3-(2,6-dichloro-3-fluoro-benzoyl)-5,6,7,8-tetrahydroindolizin-1-yl]benzoic acid [Example H-3]” had an IC50 of more than 5000 nM.

“4-[3-(2,6-dichloro-3-fluoro-benzoyl)indolizin-1-yl]-N,N-dimethyl-benzamide [Example F-2]” came in with an IC50 of more than 5000 nM.

On to “4-[3-(2,6-dichlorobenzoyl)-6-(4H-1,2,4-triazol-3-yl)indolizin-1-yl]benzoic acid [Example D-10]”, for which the IC50 is less than 500 nM.

Turning to “4-[3-(2,6-dichlorobenzoyl)-6-(methylcarbamoyl)indolizin-1-yl]benzoic acid [Example D-9]”, the IC50 was less than 5000 nM.

In turn, “4-[3-(2,6-dichlorophenoxy)indolizin-1-yl]benzoic acid [Example E-3]” came in with an IC50 of more than 5000 nM.

Consider “4-[3-(2,6-difluorobenzoyl)indolizin-1-yl]benzoic acid [Example A-37]”, for which the IC50 is less than 500 nM.

Take “4-[3-(2-chloro-6-fluoro-benzoyl)indolizin-1-yl]benzoic acid [Example A-28]”: the half-inhibitory concentration (IC50) was less than 500 nM.

In turn, “4-[3-(2-chloro-6-methyl-benzoyl)-5,6,7,8-tetrahydroindolizin-1-yl]benzoic acid [Example H-5]” gave a half-maximal inhibitory concentration (IC50) of less than 500 nM.

With “4-[3-[2-chloro-6-(trifluoromethyl)benzoyl]-6-(pyrrolidine-1-carbonyl)indolizin-1-yl]benzoic acid [Example D-12]”, the concentration for half-maximal inhibition (IC50) was less than 500 nM.

Consider “4-[6-carbamoyl-3-(2,6-dichlorobenzoyl)indolizin-1-yl]benzoic acid [Example D-13]”, for which the IC50 is less than 5000 nM.

With `CCOC(=O)c1ccc(-c2cc(C(=O)c3c(Cl)cccc3C(F)(F)F)n3ccccc23)cc1` [Example A-1, Ethyl 4-[3-[2-chloro-6-(trifluoromethyl)benzoyl]indolizin-1-yl]benzoate], the 50% inhibitory concentration (IC50) is less than 500 nM.

`O=C(O)c1ccc(-c2cc(C(=O)c3c(Cl)cccc3C(F)(F)F)n3ccccc23)cc1` [Example A-2, 4-[3-[2-chloro-6-(trifluoromethyl)benzoyl]indolizin-1-yl]benzoic acid] registered a concentration for half-maximal inhibition (IC50) of less than 500 nM.

For the compound `O=C(O)c1ccc(-c2cc(C(=O)c3c(Cl)cccc3Cl)n3ccccc23)c(F)c1` [Example A-3, 4-[3-(2,6-dichlorobenzoyl)indolizin-1-yl]-3-fluoro-benzoic acid], the IC50 is less than 500 nM.

As to `COC(=O)c1ccc(-c2cc(C(=O)c3c(Cl)cccc3Cl)n3ccccc23)c(F)c1` [Example A-4, methyl 4-[3-(2,6-dichlorobenzoyl)indolizin-1-yl]-3-fluoro-benzoate], the IC50 is less than 500 nM.

Compound `COC(=O)c1ccc(-c2cc(C(=O)c3c(F)cccc3F)n3ccccc23)c(F)c1` [Example A-5, methyl 4-[3-(2,6-difluorobenzoyl)indolizin-1-yl]-3-fluoro-benzoate] came in with an IC50 of less than 500 nM.

As for `CCOC(=O)c1ccc(-c2cc(C(=O)c3c(Cl)cccc3Cl)n3ccccc23)cc1` [Example A-6, ethyl 4-[3-(2,6-dichlorobenzoyl)indolizin-1-yl]benzoate], the concentration for half-maximal inhibition (IC50) was less than 500 nM.

Regarding `COC(=O)c1cc(F)c(-c2cc(C(=O)c3c(Cl)cccc3Cl)n3ccccc23)c(F)c1` [Example A-7, methyl 4-[3-(2,6-dichlorobenzoyl)indolizin-1-yl]-3,5-difluoro-benzoate], the IC50 is less than 500 nM.

`O=C(O)c1ccc(-c2cc(C(=O)c3c(Cl)cccc3Cl)n3ccccc23)cc1` [Example A-8, 4-[3-(2,6-dichlorobenzoyl)indolizin-1-yl]benzoic acid] came in with an IC50 of less than 500 nM.

In turn, `O=C(O)c1cc(F)c(-c2cc(C(=O)c3c(Cl)cccc3Cl)n3ccccc23)c(F)c1` [Example A-9, 4-[3-(2,6-dichlorobenzoyl)indolizin-1-yl]-3,5-difluoro-benzoic acid] registered an IC50 of less than 500 nM.

Regarding `O=C(O)c1ccc(-c2cc(C(=O)c3c(Cl)cccc3Cl)n3ccccc23)cn1` [Example A-10, 5-[3-(2,6-dichlorobenzoyl)indolizin-1-yl]pyridine-2-carboxylic acid], the 50% inhibitory concentration (IC50) was more than 5000 nM.

As to `COC(=O)c1ccc(-c2cc(C(=O)c3c(Cl)cccc3C(F)(F)F)n3ccccc23)c(F)c1` [Example A-11, methyl 4-[3-[2-chloro-6-(trifluoromethyl)benzoyl]indolizin-1-yl]-3-fluoro-benzoate], the IC50 was less than 500 nM.

Compound `O=C(O)c1ccc(-c2cc(C(=O)c3c(Cl)cccc3C(F)(F)F)n3ccccc23)c(F)c1` [Example A-12, 4-[3-[2-chloro-6-(trifluoromethyl)benzoyl]indolizin-1-yl]-3-fluoro-benzoic acid] yielded an IC50 of less than 500 nM.

`COC(=O)c1ccc(-c2cc(C(=O)c3c(C)cccc3Cl)n3ccccc23)c(F)c1` [Example A-13, methyl 4-[3-(2-chloro-6-methyl-benzoyl)indolizin-1-yl]-3-fluoro-benzoate] gave a concentration for half-maximal inhibition (IC50) of less than 500 nM.

`CCOC(=O)c1ccc(-c2cc(C(=O)c3c(C)cccc3Cl)n3ccccc23)cc1` [Example A-14, ethyl 4-[3-(2-chloro-6-methyl-benzoyl)indolizin-1-yl]benzoate] showed an IC50 of less than 500 nM.

`Cc1cccc(Cl)c1C(=O)c1cc(-c2ccc(C(=O)O)cc2F)c2ccccn12` [Example A-15, 4-[3-(2-chloro-6-methyl-benzoyl)indolizin-1-yl]-3-fluoro-benzoic acid] gave an IC50 of less than 500 nM.

For `Cc1cccc(Cl)c1C(=O)c1cc(-c2ccc(C(=O)O)cc2)c2ccccn12` [Example A-16, 4-[3-(2-chloro-6-methyl-benzoyl)indolizin-1-yl]benzoic acid], the half-inhibitory concentration (IC50) is less than 500 nM.

In the case of `COC(=O)c1ccc(-c2cc(C(=O)c3c(Cl)ccc(F)c3Cl)n3ccccc23)c(F)c1` [Example A-17, methyl 4-[3-(2,6-dichloro-3-fluoro-benzoyl)indolizin-1-yl]-3-fluoro-benzoate], the IC50 is less than 500 nM.

For the compound `O=C(O)c1ccc(-c2cc(C(=O)c3c(Cl)ccc(F)c3Cl)n3ccccc23)c(F)c1` [Example A-18, 4-[3-(2,6-dichloro-3-fluoro-benzoyl)indolizin-1-yl]-3-fluoro-benzoic acid], the IC50 was less than 500 nM.

The compound `O=C(O)c1ccc(-c2cc(C(=O)c3c(Cl)ccc(F)c3Cl)n3ccccc23)cc1` [Example A-19, 4-[3-(2,6-dichloro-3-fluoro-benzoyl)indolizin-1-yl]benzoic acid] had an IC50 of less than 500 nM.

Take `CCOC(=O)c1ccc(-c2cc(C(=O)c3c(Cl)cccc3Cl)n3cccc(F)c23)cc1` [Example A-21, ethyl 4-[3-(2,6-dichlorobenzoyl)-8-fluoro-indolizin-1-yl]benzoate]: the IC50 was less than 500 nM.

Compound `COC(=O)c1ccc(-c2cc(C(=O)c3c(Cl)cccc3Cl)n3cccc(F)c23)c(F)c1` [Example A-22, methyl 4-[3-(2,6-dichlorobenzoyl)-8-fluoro-indolizin-1-yl]-3-fluoro-benzoate] yielded a half-inhibitory concentration (IC50) of less than 500 nM.

On to `O=C(O)c1ccc(-c2cc(C(=O)c3c(Cl)cccc3Cl)n3cccc(F)c23)cc1` [Example A-23, 4-[3-(2,6-dichlorobenzoyl)-8-fluoro-indolizin-1-yl]benzoic acid], for which the IC50 was less than 500 nM.

With `CCOC(=O)c1ccc(-c2cc(C(=O)c3c(F)cccc3Cl)n3ccccc23)cc1` [Example A-24, ethyl 4-[3-(2-chloro-6-fluoro-benzoyl)indolizin-1-yl]benzoate], the 50% inhibitory concentration (IC50) is less than 500 nM.

Turning to `O=C(O)c1ccc(-c2cc(C(=O)c3c(Cl)cccc3Cl)n3cc(F)ccc23)cc1` [Example A-26, 4-[3-(2,6-dichlorobenzoyl)-6-fluoro-indolizin-1-yl]benzoic acid], the half-maximal inhibitory concentration (IC50) was less than 500 nM.

Compound `O=C(O)c1ccc(-c2cc(C(=O)c3c(F)cccc3Cl)n3ccccc23)c(F)c1` [Example A-27, 4-[3-(2-chloro-6-fluoro-benzoyl)indolizin-1-yl]-3-fluoro-benzoic acid] displayed a half-inhibitory concentration (IC50) of less than 500 nM.
